From ChEMBL document CHEMBL1201862, “PubChem BioAssay data set” (2004)
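96-well plates; 48 h exposure; 5 concentrations. Endpoints by linear interpolation between flanking doses. Not reached: highest tested concentration assigned. GI50: concentration for 50% inhibition of growth.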 The source made the active and inactive calls. Cut-off read from the data, not from the text of the source: active = GI50 up to about 1.1 µM and inactive = higher.

Assays:
Experiment in all cases: NCI anticancer screen, dose series, 48 h
CCRF-CEM = tested on: CCRF-CEM
OVCAR-3 = tested on: OVCAR-3
SR = tested on: SR
SF-295 = tested on: SF-295
EKVX = tested on: EKVX
OVCAR-8 = tested on: OVCAR-8
Hs-578T = tested on: Hs-578T
U-251 = tested on: U-251
MDA-N = tested on: MDA-N
K562 = tested on: K562
COLO 205 = tested on: COLO 205
HCT-15 = tested on: HCT-15
SK-OV-3 = tested on: SK-OV-3
LOX IMVI = tested on: LOX IMVI
NCI-H460 = tested on: NCI-H460
SF-539 = tested on: SF-539
DU-145 = tested on: DU-145
OVCAR-4 = tested on: OVCAR-4
UACC-257 = tested on: UACC-257
UACC-62 = tested on: UACC-62

SMILES	GI50 (CCRF-CEM)	GI50 (OVCAR-3)	GI50 (SR)	GI50 (SF-295)	GI50 (EKVX)	GI50 (OVCAR-8)	GI50 (Hs-578T)	GI50 (U-251)	GI50 (MDA-N)	GI50 (K562)	GI50 (COLO 205)	GI50 (HCT-15) [µM]	GI50 (SK-OV-3)	GI50 (LOX IMVI)	GI50 (NCI-H460)	GI50 (SF-539)	GI50 (DU-145)	GI50 (OVCAR-4)	GI50 (UACC-257)	GI50 (UACC-62)
C=C1C(=O)OC2/C=C(\C)CC/C=C(\C)CC(OC(=O)/C(=C/CO)CO)[C@@H]12 (some centres undefined)	2.09 µM (inactive)	5.7 µM (inactive)	9.73 µM (inactive)	70.8 µM (inactive)	15.2 µM (inactive)	1.98 µM (inactive)	27.2 µM (inactive)	1.4 µM (inactive)	5.45 µM (inactive)	2.65 µM (inactive)	2.2 µM (inactive)	5.87	56 µM (inactive)	16 µM (inactive)	22.1 µM (inactive)	12.2 µM (inactive)	20 µM (inactive)	13.1 µM (inactive)	7.85 µM (inactive)	17.7 µM (inactive)
CC(=O)/N=C1\N/C(=C\c2ccc(Cl)cc2)C(=O)N1/C=C1\C(=O)Oc2ccccc2C1=O	> 100 µM (inactive)	77.8 µM (inactive)	52.2 µM (inactive)	> 100 µM (inactive)	13.3 µM (inactive)	> 100 µM (inactive)	1.4 µM (inactive)	61.1 µM (inactive)	> 100 µM (inactive)	67.3 µM (inactive)	> 100 µM (inactive)	85.1	> 100 µM (inactive)	> 100 µM (inactive)	> 100 µM (inactive)	> 100 µM (inactive)	> 100 µM (inactive)	> 100 µM (inactive)	> 100 µM (inactive)	26.3 µM (inactive)
CC(C)(NO)/C(=N\O)c1ccco1	–	> 100 µM (inactive)	> 10 µM (inactive)	> 100 µM (inactive)	> 100 µM (inactive)	> 100 µM (inactive)	24 µM (inactive)	> 100 µM (inactive)	> 100 µM (inactive)	–	> 100 µM (inactive)	> 100	> 100 µM (inactive)	> 100 µM (inactive)	> 100 µM (inactive)	> 100 µM (inactive)	> 100 µM (inactive)	> 100 µM (inactive)	> 100 µM (inactive)	> 100 µM (inactive)
CCOC(=O)C(Cl)(NC(=O)c1ccc(F)cc1)C(F)(F)F (centres undefined)	> 100 µM (inactive)	> 100 µM (inactive)	> 100 µM (inactive)	> 100 µM (inactive)	> 100 µM (inactive)	> 100 µM (inactive)	> 100 µM (inactive)	> 100 µM (inactive)	> 100 µM (inactive)	> 100 µM (inactive)	> 100 µM (inactive)	> 100	> 100 µM (inactive)	> 100 µM (inactive)	> 100 µM (inactive)	> 100 µM (inactive)	> 100 µM (inactive)	> 100 µM (inactive)	> 100 µM (inactive)	–
COc1ccc(C2C3=C(Nc4ncnn42)c2ccccc2OC3c2ccccc2)cc1 (centres undefined)	–	27.8 µM (inactive)	8.47 µM (inactive)	27.8 µM (inactive)	–	80.2 µM (inactive)	19.1 µM (inactive)	42.3 µM (inactive)	11 µM (inactive)	11 µM (inactive)	23.7 µM (inactive)	17.4	37.5 µM (inactive)	61.8 µM (inactive)	27.2 µM (inactive)	40 µM (inactive)	> 100 µM (inactive)	–	70 µM (inactive)	17.3 µM (inactive)
